Results as given in PMC10502144, “Anti-methicillin-resistant Staphylococcus aureus activity and safety evaluation of 14-O-[(5-ethoxycarbonyl-4,6-dimethylpyrimidine-2-yl) thioacetyl] mutilin (EDT)” (Scientific Reports, 2023).
Where a name gives a salt, the structure may show the parent alone. Read-outs that look alike come from different tables or passages of the source.

Test system: MRSA-337371
Assay: microbe, parasite or virus in culture
Type: cell-based, methicillin-resistant Staphylococcus aureus
Settings: for MIC: Staphylococcus aureus, MRSA
Procedure: We performed resistance induction tests on EDT and tiamulin which was used as a referent drug. […] Finally, MRSA was cultured for 30 generations with the same procedure. At the 31st generation, drugs were removed until 40th generation and MICs were determined in each generation.

C=C[C@]1(C)C[C@@H](OC(=O)CSCCN(CC)CC)[C@]2(C)[C@H](C)CC[C@]3(CCC(=O)[C@H]32)[C@@H](C)[C@@H]1O [tiamulin, Tiamulin fumarate, reference compound]
2 µg/mL: MIC (336 h, read-out: MIC in the resistance development study, day 14) | MIC (384 h, read-out: MIC in the resistance development study, day 16) | MIC (408 h, read-out: MIC in the resistance development study, day 17) | MIC (432 h, read-out: MIC in the resistance development study, day 18) | MIC (456 h, read-out: MIC in the resistance development study, day 19) | MIC (504 h, read-out: MIC in the resistance development study, day 21) | MIC (read-out: MIC in the resistance development study, day 33, drugs removed) | MIC (read-out: MIC in the resistance development study, day 34, drugs removed) | MIC (read-out: MIC in the resistance development study, day 35, drugs removed)
eightfold: increase in the MIC values (at 22 generations)
4 µg/mL: MIC (480 h, read-out: MIC in the resistance development study, day 20) | MIC (528 h, read-out: MIC in the resistance development study, day 22) | MIC (552 h, read-out: MIC in the resistance development study, day 23) | MIC (576 h, read-out: MIC in the resistance development study, day 24) | MIC (600 h, read-out: MIC in the resistance development study, day 25) | MIC (624 h, read-out: MIC in the resistance development study, day 26) | MIC (648 h, read-out: MIC in the resistance development study, day 27) | MIC (672 h, read-out: MIC in the resistance development study, day 28) | MIC (696 h, read-out: MIC in the resistance development study, day 29) | MIC (read-out: MIC in the resistance development study, day 30) | MIC (read-out: MIC in the resistance development study, day 31, drugs removed) | MIC (read-out: MIC in the resistance development study, day 32, drugs removed)
1 µg/mL: MIC (168 h, read-out: MIC in the resistance development study, day 7) | MIC (192 h, read-out: MIC in the resistance development study, day 8) | MIC (216 h, read-out: MIC in the resistance development study, day 9) | MIC (240 h, read-out: MIC in the resistance development study, day 10) | MIC (264 h, read-out: MIC in the resistance development study, day 11) | MIC (288 h, read-out: MIC in the resistance development study, day 12) | MIC (312 h, read-out: MIC in the resistance development study, day 13) | MIC (360 h, read-out: MIC in the resistance development study, day 15)
0.5 µg/mL: MIC (24 h, read-out: MIC in the resistance development study, day 1) | MIC (48 h, read-out: MIC in the resistance development study, day 2) | MIC (72 h, read-out: MIC in the resistance development study, day 3) | MIC (96 h, read-out: MIC in the resistance development study, day 4) | MIC (120 h, read-out: MIC in the resistance development study, day 5) | MIC (144 h, read-out: MIC in the resistance development study, day 6)
recovered the initial sensitivity: sensitivity of MRSA after removing drugs (after removing drugs and culturing for additional 10 generations)
twofold: increase in the MIC values (after 7 generations of continuous culture of MRSA)
